Results on nine compounds are retold here after US8551937B2, “Peptide having an extending action for half-life of object peptide in plasma” (priority 2008, dated 2013).

Each structure is given as a SMILES string. Where a SMILES comes first, the peptide text is derived from it.

The first data set is described as follows: Motilin immunoreactivity concentration in plasma, half-life after intravenous administration (Example 6). The format is in vivo, rat. To be noted: SD, rat, plasma, 10 nmol/kg, male rats, N = 3, read-out: T½ Mean Value.
Procedure: The experiment was carried out using rats into which polyethylene tube (PE-50 manufactured by Clay Adams) was previously inserted into thigh artery under an anesthetized condition with Nembutal. As to a test system, male SD strain rats (Nippon Charles River) of 7 weeks age were used where one group comprised 3 rats. Human type motilin or a derivative thereof in a dose of 10 nmol/kg was administered into tail vein of the rat and the blood before the administration and until 60 minutes after the administration was collected by a polyethylene tube inserted into the thigh artery. To the collected blood were added EDTA (manufactured by Dojin Laboratories) and aprotinin (manufactured by Bayer) as a stabilizer and an anti-coagulant, respectively and the plasma was separated therefrom by centrifugal separation.
In the case of `CC[C@H](C)[C@H](NC(=O)[C@@H]1CCCN1C(=O)[C@@H](NC(=O)[C@@H](N)Cc1ccccc1)C(C)C)C(=O)N[C@@H](Cc1ccccc1)C(=O)N[C@H](C(=O)N[C@@H](Cc1ccc(O)cc1)C(=O)NCC(=O)N[C@@H](CCC(=O)O)C(=O)N[C@@H](CC(C)C)C(=O)N[C@@H](CCC(N)=O)C(=O)N[C@@H](CCCNC(=N)N)C(=O)N[C@@H](CO)C(=O)N1CCC[C@H]1C(=O)N[C@@H](CCC(=O)O)C(=O)N[C@@H](Cc1c[nH]cn1)C(=O)N[C@@H](CCC(N)=O)C(=O)N[C@@H](CCCNC(=N)N)C(=O)N[C@H](C(=O)N[C@@H](CCC(N)=O)C(=O)N[C@@H](CCC(N)=O)C(=O)N[C@@H](CCCNC(=N)N)C(=O)N[C@@H](CCCCN)C(=O)N[C@@H](CCC(=O)O)C(=O)N[C@@H](CO)C(=O)N[C@@H](CCCCN)C(=O)N[C@@H](CCCCN)C(=O)N1CCC[C@H]1C(=O)N1CCC[C@H]1C(=O)N[C@@H](C)C(=O)N[C@@H](CCCCN)C(=O)N[C@@H](CC(C)C)C(=O)N[C@@H](CCC(N)=O)C(=O)N1CCC[C@H]1C(=O)N[C@@H](CCCNC(=N)N)C(=O)O)C(C)C)[C@@H](C)O` [Chimeric motilin (A)] (H-FVPIFTYGELQRSPEHQRVQQRKESKKPPAKLQPR-OH; N-terminus and C-terminus assumed), the half-life was determined as 11.7 min.

In the case of `CC[C@H](C)[C@H](NC(=O)[C@@H]1CCCN1C(=O)[C@@H](NC(=O)[C@@H](N)Cc1ccccc1)C(C)C)C(=O)N[C@@H](Cc1ccccc1)C(=O)N[C@H](C(=O)N[C@@H](Cc1ccc(O)cc1)C(=O)NCC(=O)N[C@@H](CCC(=O)O)C(=O)N[C@@H](CC(C)C)C(=O)N[C@@H](CCC(N)=O)C(=O)N[C@@H](CCCNC(=N)N)C(=O)N[C@@H](CCC(=O)O)C(=O)N[C@@H](Cc1c[nH]cn1)C(=O)N[C@@H](CCC(N)=O)C(=O)N[C@@H](CCCNC(=N)N)C(=O)N[C@H](C(=O)N[C@@H](CCC(N)=O)C(=O)N[C@@H](CCC(N)=O)C(=O)N[C@@H](CCCNC(=N)N)C(=O)N[C@@H](CCCCN)C(=O)N[C@@H](CCC(=O)O)C(=O)N[C@@H](CO)C(=O)N[C@@H](CCCCN)C(=O)N[C@@H](CCCCN)C(=O)N1CCC[C@H]1C(=O)N1CCC[C@H]1C(=O)N[C@@H](C)C(=O)N[C@@H](CCCCN)C(=O)N[C@@H](CC(C)C)C(=O)N[C@@H](CCC(N)=O)C(=O)N1CCC[C@H]1C(=O)N[C@@H](CCCNC(=N)N)C(=O)O)C(C)C)[C@@H](C)O` [Chimeric motilin (B)] (H-FVPIFTYGELQREHQRVQQRKESKKPPAKLQPR-OH; N-terminus and C-terminus assumed), the half-life amounted to 11.1 min.

With `CC[C@H](C)[C@H](NC(=O)[C@@H]1CCCN1C(=O)[C@@H](NC(=O)[C@@H](N)Cc1ccccc1)C(C)C)C(=O)N[C@@H](Cc1ccccc1)C(=O)N[C@H](C(=O)N[C@@H](Cc1ccc(O)cc1)C(=O)NCC(=O)N[C@@H](CCC(=O)O)C(=O)N[C@@H](CC(C)C)C(=O)N[C@@H](CCC(N)=O)C(=O)N[C@@H](CCCNC(=N)N)C(=O)N[C@@H](CCC(N)=O)C(=O)N[C@@H](CCCNC(=N)N)C(=O)N[C@H](C(=O)N[C@@H](CCC(N)=O)C(=O)N[C@@H](CCC(N)=O)C(=O)N[C@@H](CCCNC(=N)N)C(=O)N[C@@H](CCCCN)C(=O)N[C@@H](CCC(=O)O)C(=O)N[C@@H](CO)C(=O)N[C@@H](CCCCN)C(=O)N[C@@H](CCCCN)C(=O)N1CCC[C@H]1C(=O)N1CCC[C@H]1C(=O)N[C@@H](C)C(=O)N[C@@H](CCCCN)C(=O)N[C@@H](CC(C)C)C(=O)N[C@@H](CCC(N)=O)C(=O)N1CCC[C@H]1C(=O)N[C@@H](CCCNC(=N)N)C(=O)O)C(C)C)[C@@H](C)O` [Chimeric motilin (C)] (H-FVPIFTYGELQRQRVQQRKESKKPPAKLQPR-OH; N-terminus and C-terminus assumed), the half-life is 8.9 min.

Regarding `CC[C@H](C)[C@H](NC(=O)[C@@H]1CCCN1C(=O)[C@@H](NC(=O)[C@@H](N)Cc1ccccc1)C(C)C)C(=O)N[C@@H](Cc1ccccc1)C(=O)N[C@H](C(=O)N[C@@H](Cc1ccc(O)cc1)C(=O)NCC(=O)N[C@@H](CCC(=O)O)C(=O)N[C@@H](CC(C)C)C(=O)N[C@@H](CCC(N)=O)C(=O)N[C@@H](CCCNC(=N)N)C(=O)N[C@@H](CCC(N)=O)C(=O)N[C@@H](CCCNC(=N)N)C(=O)N[C@@H](CCCCN)C(=O)N[C@@H](CCC(=O)O)C(=O)N[C@@H](CO)C(=O)N[C@@H](CCCCN)C(=O)N[C@@H](CCCCN)C(=O)N1CCC[C@H]1C(=O)N1CCC[C@H]1C(=O)N[C@@H](C)C(=O)N[C@@H](CCCCN)C(=O)N[C@@H](CC(C)C)C(=O)N[C@@H](CCC(N)=O)C(=O)N1CCC[C@H]1C(=O)N[C@@H](CCCNC(=N)N)C(=O)O)[C@@H](C)O` [Chimeric motilin (E)] (H-FVPIFTYGELQRQRKESKKPPAKLQPR-OH; N-terminus and C-terminus assumed), the half-life stood at 8.03 min.

Turning to `CC[C@H](C)[C@H](NC(=O)[C@@H]1CCCN1C(=O)[C@@H](NC(=O)[C@@H](N)Cc1ccccc1)C(C)C)C(=O)N[C@@H](Cc1ccccc1)C(=O)N[C@H](C(=O)N[C@@H](Cc1ccc(O)cc1)C(=O)NCC(=O)N[C@@H](CCC(=O)O)C(=O)N[C@@H](CC(C)C)C(=O)N[C@@H](CCC(N)=O)C(=O)N[C@@H](CCCNC(=N)N)C(=O)N[C@@H](CCCCN)C(=O)N[C@@H](CCC(=O)O)C(=O)N[C@@H](CO)C(=O)N[C@@H](CCCCN)C(=O)N[C@@H](CCCCN)C(=O)N1CCC[C@H]1C(=O)N1CCC[C@H]1C(=O)N[C@@H](C)C(=O)N[C@@H](CCCCN)C(=O)N[C@@H](CC(C)C)C(=O)N[C@@H](CCC(N)=O)C(=O)N1CCC[C@H]1C(=O)N[C@@H](CCCNC(=N)N)C(=O)O)[C@@H](C)O` [Chimeric motilin (F)] (H-FVPIFTYGELQRKESKKPPAKLQPR-OH; N-terminus and C-terminus assumed), the half-life was found to be 9.37 min.

Regarding `CC[C@H](C)[C@H](NC(=O)[C@@H]1CCCN1C(=O)[C@@H](NC(=O)[C@@H](N)Cc1ccccc1)C(C)C)C(=O)N[C@@H](Cc1ccccc1)C(=O)N[C@H](C(=O)N[C@@H](Cc1ccc(O)cc1)C(=O)NCC(=O)N[C@@H](CCC(=O)O)C(=O)N[C@@H](CC(C)C)C(=O)N[C@@H](CCC(N)=O)C(=O)N[C@@H](CCCNC(=N)N)C(=O)N[C@@H](CO)C(=O)N[C@@H](CCCCN)C(=O)N[C@@H](CCCCN)C(=O)N1CCC[C@H]1C(=O)N1CCC[C@H]1C(=O)N[C@@H](C)C(=O)N[C@@H](CCCCN)C(=O)N[C@@H](CC(C)C)C(=O)N[C@@H](CCC(N)=O)C(=O)N1CCC[C@H]1C(=O)N[C@@H](CCCNC(=N)N)C(=O)O)[C@@H](C)O` [Chimeric motilin (G)] (H-FVPIFTYGELQRSKKPPAKLQPR-OH; N-terminus and C-terminus assumed), the half-life stood at 5.25 min.

Staying with this data set, now noted: rats.
For `CC[C@H](C)[C@H](NC(=O)[C@@H]1CCCN1C(=O)[C@@H](NC(=O)[C@@H](N)Cc1ccccc1)C(C)C)C(=O)N[C@@H](Cc1ccccc1)C(=O)N[C@H](C(=O)N[C@@H](Cc1ccc(O)cc1)C(=O)NCC(=O)N[C@@H](CCC(=O)O)C(=O)N[C@@H](CC(C)C)C(=O)N[C@@H](CCC(N)=O)C(=O)N[C@@H](CCCNC(=N)N)C(=O)N[C@@H](CO)C(=O)N[C@@H](CCCCN)C(=O)N[C@@H](CCCCN)C(=O)N1CCC[C@H]1C(=O)N1CCC[C@H]1C(=O)N[C@@H](C)C(=O)N[C@@H](CCCCN)C(=O)N[C@@H](CC(C)C)C(=O)N[C@@H](CCC(N)=O)C(=O)N1CCC[C@H]1C(=O)N[C@@H](CCCNC(=N)N)C(=O)O)[C@@H](C)O` [Chimeric motilin (G)] (H-FVPIFTYGELQRSKKPPAKLQPR-OH; N-terminus and C-terminus assumed), the “disappearance half-time extending action in vivo compared with native motilin” value is listed as “unable to be confirmed”.

A short description of a further data set: Motilin immunoreactivity concentration in plasma, half-life after intravenous administration (Example 8). To be noted: male, SD, rat, in vivo, iv, 10 nmol/kg. The essentials:
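Male SD rats (7 weeks, n=3/group) received human motilin or derivative at 10 nmol/kg i.v. via tail vein; arterial blood was sampled up to 60 min, with EDTA and aprotinin added. Plasma motilin immunoreactivity was measured by competitive RIA using a rabbit polyclonal antibody against native motilin residues 1–12 and ^125I-[Tyr^7] human motilin tracer.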
`CC[C@H](C)[C@H](NC(=O)[C@@H]1CCCN1C(=O)[C@@H](NC(=O)[C@@H](N)Cc1ccccc1)C(C)C)C(=O)N[C@@H](Cc1ccccc1)C(=O)N[C@H](C(=O)N[C@@H](Cc1ccc(O)cc1)C(=O)NCC(=O)N[C@@H](CCC(=O)O)C(=O)N[C@@H](CC(C)C)C(=O)N[C@@H](CCC(N)=O)C(=O)N[C@@H](CCCNC(=N)N)C(=O)N[C@H](C(=O)N[C@@H](CCC(N)=O)C(=O)N[C@@H](CCC(N)=O)C(=O)N[C@@H](CCCCN)C(=O)N[C@@H](CCCCN)C(=O)N[C@@H](C)C(=O)N[C@@H](Cc1ccc(O)cc1)C(=O)N[C@@H](CO)C(=O)N1CCC[C@H]1C(=O)N[C@@H](CC(=O)O)C(=O)N[C@@H](CCCCN)C(=O)N[C@@H](CCC(=O)O)C(=O)N[C@@H](CCCNC(=N)N)C(=O)N[C@@H](CCCCN)C(=O)N1CCC[C@H]1C(=O)N1CCC[C@H]1C(=O)N[C@@H](C)C(=O)N[C@@H](CCCCN)C(=O)N[C@@H](CC(C)C)C(=O)N[C@@H](CCC(N)=O)C(=O)N1CCC[C@H]1C(=O)N[C@@H](CCCNC(=N)N)C(=O)O)C(C)C)[C@@H](C)O` [Chimeric motilin (XIII)(MGP2)] (H-FVPIFTYGELQRVQQKKAYSPDKERKPPAKLQPR-OH; N-terminus and C-terminus assumed) showed a half-life of 13.1 min.

In turn, `CC[C@H](C)[C@H](NC(=O)[C@@H]1CCCN1C(=O)[C@@H](NC(=O)[C@@H](N)Cc1ccccc1)C(C)C)C(=O)N[C@@H](Cc1ccccc1)C(=O)N[C@H](C(=O)N[C@@H](Cc1ccc(O)cc1)C(=O)NCC(=O)N[C@@H](CCC(=O)O)C(=O)N[C@@H](CC(C)C)C(=O)N[C@@H](CCC(N)=O)C(=O)N[C@@H](CCCNC(=N)N)C(=O)N[C@H](C(=O)N[C@@H](CCC(N)=O)C(=O)N[C@@H](CCC(N)=O)C(=O)N[C@@H](CCCCN)C(=O)N[C@@H](CCCCN)C(=O)N[C@@H](CO)C(=O)N[C@@H](CCC(=O)O)C(=O)N[C@@H](CCCCN)C(=O)N[C@@H](CCCNC(=N)N)C(=O)N1CCC[C@H]1C(=O)N1CCC[C@H]1C(=O)N[C@@H](C)C(=O)N[C@@H](CCCCN)C(=O)N[C@@H](CC(C)C)C(=O)N[C@@H](CCC(N)=O)C(=O)N1CCC[C@H]1C(=O)N[C@@H](CCCNC(=N)N)C(=O)O)C(C)C)[C@@H](C)O` [Chimeric motilin (Y)(MG-BR)] (H-FVPIFTYGELQRVQQKKSEKRPPAKLQPR-OH; N-terminus and C-terminus assumed) had a half-life of 11.6 min.

With `CC[C@H](C)[C@H](NC(=O)[C@@H]1CCCN1C(=O)[C@@H](NC(=O)[C@@H](N)Cc1ccccc1)C(C)C)C(=O)N[C@@H](Cc1ccccc1)C(=O)N[C@H](C(=O)N[C@@H](Cc1ccc(O)cc1)C(=O)NCC(=O)N[C@@H](CCC(=O)O)C(=O)N[C@@H](CC(C)C)C(=O)N[C@@H](CCC(N)=O)C(=O)N[C@@H](CCCNC(=N)N)C(=O)N[C@H](C(=O)N[C@@H](CCC(N)=O)C(=O)N[C@@H](CCC(N)=O)C(=O)N[C@@H](CCCNC(=N)N)C(=O)N[C@@H](CCCCN)C(=O)NCC(=O)N[C@@H](CCC(=O)O)C(=O)N[C@@H](CO)C(=O)N[C@@H](CCCCN)C(=O)N[C@@H](CCCCN)C(=O)N1CCC[C@H]1C(=O)N1CCC[C@H]1C(=O)N[C@@H](C)C(=O)N[C@@H](CCCCN)C(=O)N[C@@H](CC(C)C)C(=O)N[C@@H](CCC(N)=O)C(=O)N1CCC[C@H]1C(=O)N[C@@H](CCCNC(=N)N)C(=O)O)C(C)C)[C@@H](C)O` [Chimeric motilin (Z)(MG-i17G)] (H-FVPIFTYGELQRVQQRKGESKKPPAKLQPR-OH; N-terminus and C-terminus assumed), the half-life amounted to 10.5 min.
